PubChem BioAssay AID651574 (The Scripps Research Institute Molecular Screening Center, 2012)
Active and inactive are the calls of the source. How the calls were made is not given here.

System: Core protein (Hepatitis C virus)
Assay: HCV infectivity inhibition in infected cells, late-stage follow-up, counter-screen for HCV core dimerization inhibitor project, cell-based, fluorescence qPCR, two timepoints (AID 651574)
Conditions: viral RNA qPCR

| SMILES | IC50 (timepoint 1) | IC50 (timepoint 2) |
| --- | --- | --- |
| Cc1ccc(Cc2c(C)nc3nc(SCC(=O)NCCN4CCCCCC4)nn3c2C)cc1 | 8.5 µM | 13.7 µM |
| Cc1ccc(Cc2c(C)nc3nc(SCC(=O)NCCN4CCCN(S(=O)(=O)c5ccccc5)CC4)nn3c2C)cc1 | 3.2 µM | 2.2 µM |
| Cc1ccc(Cc2c(C)nc3nc(SCC(=O)NCCN4CCN(Cc5ccc(F)cc5)CC4)nn3c2C)cc1 | 0.099 µM |  |
| Cc1ccc(Cc2c(C)nc3nc(SCC(=O)NCCN4CCN(S(=O)(=O)c5ccccc5)CC4)nn3c2C)cc1 | 5.3 µM | 12.5 µM |
| Cc1ccc(Cc2c(C)nc3nc(SCC(=O)NCCN4CCN(CCc5ccccc5)CC4)nn3c2C)cc1 | 3.07 µM |  |
| Cc1ccc(Cc2c(C)nc3nc(SCC(=O)NCCN4CCNCC4)nn3c2C)cc1 |  | 1.8 µM |
| Cc1ccc(Cc2c(C)nc3nc(SCC(=O)NCCN4CCOCC4)nn3c2C)cc1 | 12 µM |  |
| Cc1ccc(Cc2c(C)nc3nc(SCC(=O)NCCN4CCCN(S(C)(=O)=O)CC4)nn3c2C)cc1 | 18.9 µM | 24.3 µM (inactive) |
| Cc1ccc(Cc2c(CCc3ccccc3)nc3nc(SC(Cc4ccccc4)C(=O)NCCN4CCOCC4)nn3c2C)cc1 (configuration not stated) | 7.7 µM |  |
| Cc1ccc(Cc2c(C)nc3nc(SCC(=O)NCCN4CCCN(S(=O)(=O)c5ccc(C)cc5)CC4)nn3c2C)cc1 | 2.7 µM | 7.2 µM |
| Cc1ccc(Cc2c(C)nc3nc(SCC(=O)NCCCN4CCCCCC4)nn3c2C)cc1 | 6.7 µM | 12 µM |
